The numbers were not newly measured in US20060286181A1, “Diet supplements for causing fast weight loss, improving daytime energy, promoting nighttime relaxation and sleep, controlling appetite and/or increasing metabolism” (priority 2005, published 2006), which cites them from elsewhere.

Where two headings read alike, the source gives them in different places.

For data set [1] the following is noted: in vivo.
Data set [2] relates to benzodiazepine binding site in the gamma-aminobutyric acid receptor type A (GABA(A)).
For data set [3] the following is noted: at least three clinical trials.
The next data set deals with fatty acid synthesis. The settings on record: rats.
The subject of the next data set is appetite. The settings on record: rats.
For another data set, the target named is T1, ATP:citrate lyase (Homo sapiens, UniProt P53396).
T1 sequence (P53396 1-1101): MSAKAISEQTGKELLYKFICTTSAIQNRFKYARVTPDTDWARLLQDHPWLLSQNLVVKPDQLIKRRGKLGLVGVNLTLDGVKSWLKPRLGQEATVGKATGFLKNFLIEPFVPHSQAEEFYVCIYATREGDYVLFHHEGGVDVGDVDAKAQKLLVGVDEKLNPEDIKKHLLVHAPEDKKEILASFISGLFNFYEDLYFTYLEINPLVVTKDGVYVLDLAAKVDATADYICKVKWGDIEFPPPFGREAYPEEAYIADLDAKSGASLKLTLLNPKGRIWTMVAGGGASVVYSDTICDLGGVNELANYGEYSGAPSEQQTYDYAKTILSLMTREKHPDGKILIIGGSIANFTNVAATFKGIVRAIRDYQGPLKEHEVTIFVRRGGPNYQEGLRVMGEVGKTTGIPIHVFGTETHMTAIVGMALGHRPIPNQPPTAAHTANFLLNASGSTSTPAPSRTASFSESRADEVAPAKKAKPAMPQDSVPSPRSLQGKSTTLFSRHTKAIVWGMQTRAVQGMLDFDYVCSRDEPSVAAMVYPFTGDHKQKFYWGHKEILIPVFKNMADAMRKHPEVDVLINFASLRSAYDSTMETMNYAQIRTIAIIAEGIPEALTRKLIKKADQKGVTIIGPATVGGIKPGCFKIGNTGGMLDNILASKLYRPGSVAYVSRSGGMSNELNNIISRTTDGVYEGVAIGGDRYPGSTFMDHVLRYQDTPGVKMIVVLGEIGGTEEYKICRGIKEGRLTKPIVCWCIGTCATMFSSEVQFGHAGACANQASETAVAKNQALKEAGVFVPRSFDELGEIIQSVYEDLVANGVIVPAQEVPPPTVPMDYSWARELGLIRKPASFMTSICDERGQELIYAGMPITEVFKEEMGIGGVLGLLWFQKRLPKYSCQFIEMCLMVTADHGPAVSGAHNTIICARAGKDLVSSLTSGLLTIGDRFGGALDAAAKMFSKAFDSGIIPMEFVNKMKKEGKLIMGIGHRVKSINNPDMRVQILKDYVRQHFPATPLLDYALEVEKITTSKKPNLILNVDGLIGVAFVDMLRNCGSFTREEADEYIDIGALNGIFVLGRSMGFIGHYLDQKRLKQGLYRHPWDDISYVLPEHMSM

In the next data set the test system is diet-induced weight gain. The settings on record: mice.
The conditions of data set [4]: meta-analysis of forty double-blind studies.
Assay in data set [5]: not given
The source holds these as a separate data set.

For data set [6] the following is noted: daily supplementation with moderate exercise, 8 weeks.
Assay in data set [7]: not given
The source holds these as a separate data set.

The conditions of data set [8]: 8 weeks, overweight subjects.
Assay in data set [9]: not given
This is another data set of the same source.

With `O=c1cc(-c2ccc(O)cc2)oc2cc(O)cc(O)c12` [Apigenin], in data set [1], the “memory and motor skills” value is “without impairing memory or motor skills”; the “sedation and locomotor activity” value was “sedation and a reduction in locomotor activity”. Also, the “binding to benzodiazepine binding site of GABA(A)” value in data set [2] was “can bind”.
Regarding `N[C@@H](Cc1c[nH]c2ccc(O)cc12)C(=O)O` [Example 5-HTP, 5-hydroxy-L-tryptophan], in data set [3], the “weight loss, safety and efficacy” value is “safely and effectively to aid in weight loss”.
For `O=C(O)CC(O)(C(=O)O)C(O)C(=O)O` (centres unmarked) [HCA, Hydroxycitric acid], the fatty acid synthesis entry in the data set with fatty acid synthesis is listed as “inhibit fatty acid synthesis”. For the same molecule, the appetite entry in the data set on appetite is reported as “repress appetite”. Besides, under “clinical studies”, the caloric intake entry is “reduction caloric intake”. In addition, the safety entry (human clinical trials) is “demonstrated safety”. Moreover, the levels of serotonin entry (human, in vivo) is “significantly increased”. Further, the “fat oxidation during exercise” value (untrained men and women) was “increasing fat oxidation”. For the same molecule, on ATP:citrate lyase, the “inhibition of ATP:citrate lyase” value is “competitive inhibitor”.
Take `COc1ccc2[nH]cc(CCNC(C)=O)c2c1` [Melatonin]: the diet-induced weight gain result with diet-induced weight gain is recorded as “reduce diet-induced weight gain”.
With `Cn1c(=O)c2c(ncn2C)n(C)c1=O` [caffeine, Caffeine], the physical endurance result in data set [4] was “increase physical endurance”. The basal metabolic rate result in [5] (in vivo) is given as “increase the basal metabolic rate”. Besides, the weight loss entry in [5] (obese women) was “Significant weight loss”. In addition, the “binding to and activation of adenosine receptors” value in the data set with adenosine receptors is reported as “binds to, but does not activate”.
Regarding `[Cr]` [chromium, Chromium], the blood cholesterol profile result in [6] was “improved blood cholesterol profile”. In addition, in data set [6] (vs placebo group), the weight loss entry is listed as “increased weight loss”. Further, in data set [7] (clinical), the lean mass result was “increase lean mass”. In addition, the body fat result in [7] (combined with exercise) was “reduce body fat”. For the same molecule, in data set [7] (in vivo), the HDL cholesterol entry is recorded as “increase HDL”.
For the molecule Chromium Polynicotinate, in the data set on Metabolic Syndrome (compared to control groups), the systolic blood pressure result is recorded as “effective in lowering systolic blood pressure”. The “free radical damage in liver and kidney tissue” value in the data set on Metabolic Syndrome (compared to controls) was “less free radical damage”. For the same molecule, the muscle loss result in data set [8] was “sparing muscle from loss”. Also, the body fat result in [8] (vs placebo group) is on record as “significant loss of body fat”.
With Phosphatidylserine, in data set [9] (clinical trials), the cortisol levels result is “lower cortisol levels” and the stress result is “reduce stress”. Further, in data set [9] (human, in vivo), the exercise capacity entry is “increase exercise capacity” and the mood entry is “positively affect mood”.
